{"source": "paper PMC11949389", "about": "(Polish Journal of Microbiology, 2025)", "origin": "cited, not measured here", "key": {"[1]": {"test_system": "Salmonella Thyphimurium", "settings": "ref Giovagnoni et al. 2020"}, "[2]": {"test_system": "Candida krusei", "settings": "Candida krusei; ref Sharifzadeh et al. 2019; Iraji et al. 2020; Biernasiuk et al. 2022; Stringaro et al. 2022"}, "[3]": {"test_system": "HSV-2", "settings": "HSV-2, 1 mmol/l; ref Wang et al. (2020a)"}, "[4]": {"test_system": "Streptococcus suis", "settings": "ref de Aguiar et al. 2019"}, "[5]": {"test_system": "bacteria co-isolated with C. albicans", "settings": "ref Touil et al. (2020)"}, "[6]": {"test_system": "Pseudomonas aeruginosa Enterococcus faecalis", "settings": "ref Mechmechani et al. 2022"}, "[7]": {"test_system": "Proteus mirabilis", "settings": "ref Sim et al. 2019"}, "[8]": {"test_system": "Vibrio anguillarum, and Vibrio harveyi", "settings": "ref Rossi et al. (2021)"}, "[9]": {"test_system": "Vancomycin-resistant Enterococcus (VRE)", "settings": "Vancomycin-resistant Enterococcus (VRE); ref Owen et al. 2019"}, "[10]": {"test_system": "Staphylococcus aureus"}, "[11]": {"test_system": "Candida auris"}, "[12]": {"test_system": "Pseudomonas aeruginosa", "settings": "Pseudomonas aeruginosa; ref Owen et al. 2019; Sim et al. 2019; Noumi et al. 2023"}}, "note": "Where two headings read alike, the source gives them in different places.", "data": [{"compound": "Cc1ccc(C(C)C)cc1O", "note": "[Carvacrol]", "values": [{"measurement": "Mechanisms of action", "setting": "[1]", "value": "• Anti-inflammatory effects • Anti-oxidant properties • Enhanced epithelial barrier integrity • Reduction of bacterial translocation • Improved transepithelial electrical resistance • Inhibited bacterial growth"}, {"measurement": "MIC/Sensitivity", "setting": "[2]", "value": "87.50 to 125", "unit": "µg/mL"}, {"measurement": "virus release rate", "setting": "[3]", "value": 33.67, "unit": "%"}, {"measurement": "MIC/Sensitivity", "setting": "[4]", "value": 156.25, "unit": "µg/mL"}, {"measurement": "MIC", "setting": "[5]", "value": "1,000 μg/ml"}, {"measurement": "Mechanisms of action", "setting": "[6]", "value": "• Cell membrane destruction • Leakage of the intercellular pool • Anti-biofilm properties • Increased extracellular K+ ions concentrations"}, {"measurement": "MIC/Sensitivity", "setting": "[7]", "value": "146 to 292", "unit": "µg/mL"}, {"measurement": "MIC", "setting": "[8]", "value": "940 to 7500", "unit": "µM"}, {"measurement": "MIC/Sensitivity", "setting": "[9]", "value": 593369, "unit": "µg/mL"}, {"measurement": "MIC", "setting": "[10]; S. aureus, ref Sousa Silveira et al. (2020)", "value": 256, "unit": "µg/mL"}, {"measurement": "MIC/Sensitivity", "setting": "[10]; Staphylococcus aureus, ref Kwiatkowski et al. 2020, Sayout et al. 2020, Sousa Silveira et al. 2020, Macêdo et al. 2022, Noumi et al. 2023, Sharma et al. 2023", "value": "256 to 3200", "unit": "µg/mL"}, {"measurement": "Mechanisms of action", "setting": "[11]; ref Ismail et al. 2022", "value": "• Induced oxidative stress • Increased CAT, SOD and GPx enzyme activity • Decreased GR and GST enzyme activity • Caused membrane disintegration"}, {"measurement": "Mechanisms of action", "setting": "[11]; ref Shaban et al. 2020", "value": "• Reduced proteinase production and host cell adherence"}, {"measurement": "MIC/Sensitivity", "setting": "[12]", "value": "585 to 1120", "unit": "µg/mL"}]}]}
